Counter-ions that a name gives are not always drawn. Like-named read-outs stand apart in the source and are kept apart here.
Key:
Type in all cases: in vivo
[1] = test system: Hedyotis verticillata; experiment: Field trial, herbicidal activity against Hedyotis verticillata in oil palm plantation; conditions: Scleromitrion verticillatum; for inhibition at 25 g/ha: read-out: Herbicidal activity (%), w. after appl., No. 11, dose 25 g of AS/ha; for inhibition at 50 g/ha: read-out: Herbicidal activity (%), w. after appl., No. 12, dose 50 g of AS/ha; for inhibition at 80 g/ha: read-out: Herbicidal activity (%), w. after appl., No. 13, dose 80 g of AS/ha
Experimental: (§1) In an oil palm plantation, the economically important tropical weed Hedyotis verticillata was grown on plots of the dimensions 2×5 m under natural outdoor conditions and treated with the herbicides A1.2, B1 and C1 or their mixtures in a tank mix under standard conditions using a plot sprayer, at a water application rate of 450 liters of water per hectare (over-the-top application to the weeds; plant density initially more than 95% ground coverage). At intervals of 1, 2, 3, 4, 5, 6, 7 and 8 weeks after the application, the herbicidal efficacy of the active compounds or active compound mixtures was evaluated visually on the basis of the treated plots, in comparison with untreated control plots. The damage to and development of all above-ground parts of the plants were recorded. Evaluation was carried out using a percentage scale (100% effect=all plants killed; 50% effect=50% of the plants and the green parts of the plants killed; 0% effect=no noticeable effect=like control plot). The evaluation values of in each case 4 plots were averaged.

[2] = test system: Asystasia intrusa; experiment: Field trial, herbicidal activity against Asystasia intrusa in rubber tree plantation; conditions: Asystasia intrusa, read-out: Activity (%), w. after appl., No. 2, dose 60 g of AS/ha
Experimental: as §1
In a rubber tree plantation, plots with the tropical weed Asystasia intrusa were grown under natural outdoor conditions (dimensions of the plots 2 x 5 m). The herbicides or their mixtures in a tank mix were applied under standard conditions (over-the-top application using a plot sprayer, water application rate 450 l/ha). In intervals of 4, 7, 13, 17 and 21 weeks after the application, the herbicidal efficacy of the active compounds or their mixtures was evaluated visually on the basis of the treated plots, in comparison with untreated control plots. The damage to and the development of all above-ground parts of the plants were recorded. Evaluation was carried out as described in Example 1.

[3] = test system: Axonopus compressus; experiment: Field trial, herbicidal activity against Axonopus compressus in rubber tree plantation; conditions: Axonopus compressus, read-out: Activity (%), w. after appl., No. 2, dose 60 g of AS/ha
Experimental: as §1
In a rubber tree plantation, plots with the tropical weed Axonopus compressus were grown under natural outdoor conditions (plot dimensions 2×5 m). The herbicides or their mixtures in a tank mix were applied under standard conditions using a plot spayer at a water application rate of 450 liters of water per hectare (over-the-top application). At intervals of 4, 7, 13, 17 and 21 weeks after the application, the herbicidal efficacy of the active compounds or active compound mixtures was evaluated visually on the basis of the treated plots, in comparison with untreated control plots. The damage to and development of all above-ground parts of the plants were recorded. Evaluation was carried out as described in Example 1.

[4] = test system: Brachiaria mutica, Digitaria horizontalis, Panicum maximum, Echinochloa colona and Ageratum conyzoides; experiment: Field trial, herbicidal activity against weeds in sugar cane plantation
Experimental: as §1, with “Evaluation was carried out using a percentage scale (100% effect=all plants killed; 50% effect=50% of the plants and the green parts of the plants killed; 0% effect=no noticeable effect=like control plot). The evaluation values of in each case 4 plots were averaged.” left out
In a sugar cane plantation, plots with the weeds Brachiaria mutica, Digitaria horizontalis, Panicum maximum, Echinochloa colona and Ageratum conyzoides were grown under natural outdoor conditions (dimensions of the plots 2×5 m). […] Four weeks after the application, the herbicidal efficacy of the active compounds or their mixtures was evaluated visually on the basis of the treated plots, in comparison with untreated control plots. The damage to and development of all above-ground parts of the plants were recorded. […]

Molecule `CP(=O)(O)CCC(N)C(=O)O` (stereo not drawn) [A1.2, Glufosinate-monoammonium salt] has an inhibition at 25 g/ha ([1]; 1 w. after appl.) of 35%, an inhibition at 25 g/ha ([1]; 2 w. after appl.) of 28% and an inhibition at 25 g/ha ([1]; 3 w. after appl.) of 23%. For the same molecule, the inhibition at 25 g/ha ([1]; 4 w. after appl.) was 20%, the inhibition at 25 g/ha ([1]; 5 w. after appl.) was 10% and the inhibition at 25 g/ha ([1]; 6 w. after appl.) was 10%. The inhibition at 25 g/ha ([1]; 7 w. after appl.) was 10%, the inhibition at 25 g/ha ([1]; 8 w. after appl.) was 0% and the inhibition at 50 g/ha ([1]; 1 w. after appl.) was 35%. It also gave an inhibition at 50 g/ha ([1]; 2 w. after appl.) of 25%, an inhibition at 50 g/ha ([1]; 3 w. after appl.) of 20% and an inhibition at 50 g/ha ([1]; 4 w. after appl.) of 20%. The inhibition at 50 g/ha ([1]; 5 w. after appl.) was 10%, the inhibition at 50 g/ha ([1]; 6 w. after appl.) was 10% and the inhibition at 50 g/ha ([1]; 7 w. after appl.) was 10%. For the same molecule, the inhibition at 50 g/ha ([1]; 8 w. after appl.) was 0%, the inhibition at 80 g/ha ([1]; 1 w. after appl.) was 58% and the inhibition at 80 g/ha ([1]; 2 w. after appl.) was 45%. It also gave an inhibition at 80 g/ha ([1]; 3 w. after appl.) of 40%, an inhibition at 80 g/ha ([1]; 4 w. after appl.) of 40% and an inhibition at 80 g/ha ([1]; 5 w. after appl.) of 40%. The inhibition at 80 g/ha ([1]; 6 w. after appl.) was 30%, the inhibition at 80 g/ha ([1]; 7 w. after appl.) was 28% and the inhibition at 80 g/ha ([1]; 8 w. after appl.) was 8%. It also gave an inhibition at 60 g/ha ([2]; 4 w. after appl.) of 23%, an inhibition at 60 g/ha ([2]; 7 w. after appl.) of 5% and an inhibition at 60 g/ha ([2]; 13 w. after appl.) of 0%. The inhibition at 60 g/ha ([2]; 17 w. after appl.) was 0%, the inhibition at 60 g/ha ([2]; 21 w. after appl.) was 0% and the inhibition at 60 g/ha ([3]; 4 w. after appl.) was 17%. For the same molecule, the inhibition at 60 g/ha ([3]; 7 w. after appl.) was 10%, the inhibition at 60 g/ha ([3]; 13 w. after appl.) was 0% and the inhibition at 60 g/ha ([3]; 17 w. after appl.) was 0%. The inhibition at 60 g/ha ([3]; 21 w. after appl.) was 0%, the inhibition at 300 g/ha ([4]; 672 h, read-out: Herbicidal activity (%)) was 72% and the “Weed coverage (%)” value ([4]; No. 2, dose 300 g of AS/ha, percent ground coverage, control plot has more than 95% weed coverage) was 27%.
